{
  "source": "patent US10669270B2",
  "about": "“Amide-sulfamide derivatives, compositions, and uses related to CXCR4 inhibition” (Emory University, priority 2016, dated 2020)",
  "key": {"[1]": {"system": "MDA-MB-231 cells", "experiment": "Matrigel invasion assay", "type": "cell-based", "conditions": "compounds 100 nM; CXCL12α 200 ng/mL; 22 hours", "experimental": "Matrigel invasion assay was performed by using a Matrigel invasion chamber from Corning Biocoat (Bedford, Mass.). CXCL12α(200 ng/mL; R & D Systems, Minneapolis, Minn.) was added to the bottom chamber to induce the invasion of MDA-MB-231 cells through the Matrigel. The selected compounds (100 nM) or AMD3100 were added to the cells before the cells were seeded in the top chamber. The Matrigel invasion chamber was incubated for 22 hours in a humidified cell culture incubator. First, non-invading cells were removed from the top of the Matrigel with a cotton-tipped swab. Invading cells on the filter at the bottom of the Matrigel were fixed in methanol and stained with hematoxylin and eosin (H & E). The percent of invasion was determined by counting the H&E stained cellc."}, "[2]": {"system": "CXCR4/CXCL12-mediated Akt phosphorylation", "experiment": "Western blot analysis of Akt phosphorylation", "type": "cell-based", "experimental": "Forty micrograms of protein were separated by SDS-PAGE and transferred to a PVDF membrane (Bio-Rad, Hercules, Calif., USA). The membrane was blocked for 30 min in a blocking solution (5% milk in Trisbuffered saline containing 0.1% Tween-20) and incubated overnight at 4° C. using monoclonal rabbit anti-phospho-Akt (Ser473) antibody (Cat No., 9271) and monoclonal rabbit anti-Akt (pan) antibody (cat No., 4691) at 1:500 in blocking solution. All antibodies were purchased from Cell Signaling Technology (Danvers, USA). The membrane was incubated for 1 hour with goat anti-rabbit IgG (H+L)-HRP conjugated secondary antibody at 1:10000 (Cat No. 1706515; Bio-rad, Hercules, USA) after washing. Enzyme-linked chemiluminescence was performed to detect hybridized protein bands."}, "[3]": {"system": "bacterial-infected J774A.1 macrophages", "experiment": "TNF-α secretion by bacterial-infected macrophages", "type": "cell-based"}, "[4]": {"system": "xylene-induced ear edema", "experiment": "Xylene-induced ear inflammation suppression test", "type": "in vivo, mice", "conditions": "for inflammation suppression (mouse ear edema): 10 mg/kg i.p., 30 minutes after xylene, sacrificed 2 hours later; for histological analysis of ear: ear damage, edema, inflammatory cells", "experimental": "Five mice per group were used to determine the effect of the CXCR4 modulators. The inner and outer surfaces of the right ear of each mouse were treated with a total 30 μL of xylene for the induction of ear edema, whereas the left ear was treated with 30 μL of saline, which was used as a non-inflammation control. The selected compounds were dissolved in 10% DMSO and 90% of 45% (2-hydroxypropyl)-β-cyclodextrin (CD) in PBS. Thirty minutes after the application of xylene, 14 selected compounds were administered intraperitoneally (i.p.) at 10 mg/kg. Control animals received corresponding i.p. injections of the vehicle. The animals were sacrificed 2 hours later, and two ear plugs (7 mm in diameter) were removed from both the treated ear and the untreated ear. Weights of treated and untreated ear plugs were measured. The difference in weight of the two ear plugs was taken as a measure of edematous response. The inflammation-suppression percentage was calculated by comparing the drug-treated group to the control group."}, "[5]": {"experiment": "Preliminary pharmacokinetic study (plasma stability)", "type": "in vitro ADME"}, "[6]": {"system": "MDA-MB-231 cells", "experiment": "Cytotoxicity screening, MDA-MB-231", "type": "cell-based", "conditions": "at 10 μM"}, "[7]": {"system": "MCF-10A cells", "experiment": "Cytotoxicity screening, MCF-10A", "type": "cell-based", "conditions": "at 10 μM"}},
  "note": "“Also recorded” adds a separate entry of the source.",
  "data": [
    {"smiles": "O=C(NCc1ccc(CNS(=O)(=O)c2ccc(F)cc2F)cc1)c1cncnc1", "note": "[Ig, N-(4-((2,4-difluorophenylsulfonamido)methyl)benzyl)pyrimidine-5-carboxamide]", "values": [
      {"measurement": "Matrigel invasion inhibition compared with AMD3100", "setting": "[1]", "value": "better activity than AMD3100"},
      {"measurement": "CXCR4/CXCL12-mediated phosphorylation of Akt", "setting": "[2]", "value": "blocked the phosphorylation of Akt; also recorded: blocked the CXCR4/CXCL12-mediated Akt phosphorylation in a dose-dependent manner"},
      {"measurement": "TNF-α secretion", "setting": "[3]; result in words", "value": "significantly suppressed"},
      {"measurement": "inflammation suppression (mouse ear edema)", "setting": "[4]", "value": 56, "unit": "%"},
      {"measurement": "histological analysis of ear", "setting": "[4]", "value": "significantly attenuated the ear damage and decreased the number of inflammatory cells"}
    ]},
    {"smiles": "Cc1ccc(S(=O)(=O)NCc2ccc(CNC(=O)c3ccc(F)cc3)cc2)cc1", "note": "[IIj, 4-Fluoro-N-(4-((4-methylphenylsulfonamido)methyl)benzyl)benzamide]", "values": [
      {"measurement": "melting point", "value": "187 to 189", "unit": "°C"},
      {"measurement": "CXCR4/CXCL12-mediated phosphorylation of Akt", "setting": "[2]", "value": "blocked the CXCR4/CXCL12-mediated phosphorylation of Akt in a dose-dependent manner"},
      {"measurement": "plasma stability", "setting": "[5]", "value": "favourable plasma stability"},
      {"measurement": "inhibition of proliferation (cytotoxicity)", "setting": "[6]", "value": "did not inhibit the proliferation"},
      {"measurement": "attenuation of the amount of TNF-α", "setting": "[3]", "value": 59, "unit": "%"},
      {"measurement": "inflammation suppression (mouse ear edema)", "setting": "[4]", "value": 75, "unit": "%"},
      {"measurement": "histological analysis of ear", "setting": "[4]", "value": "attenuated ear edema and damage substantially"},
      {"measurement": "inhibition of proliferation (cytotoxicity)", "setting": "[7]", "value": "did not inhibit the proliferation"}
    ]}
  ]
}
